“Also recorded” adds a separate entry of the source. Where two headings read alike, the source gives them in different places.
Key:
[1] = test system: L1210 leukemia; test: Survival time of mice bearing the L1210 leukemia; format: in vivo, mouse (CDF-1 mice); conditions: for Av. Change wt. %: L1210 mice; for response vs control in vivo at 50 mg/kg / response vs control in vivo at 100 mg/kg / response vs control in vivo at 150 mg/kg: Mus musculus, read-out: % T/C; for activity against the L1210 leukemia (in words): mouse, in vivo; for Max. % T/C L1210 Leukemia: Table V
Excerpt: The ascites cell forms of the L1210 leukemia, Sarcoma 180 and P388 leukemia were propagated in CDF-1 mice. […] Mice were weighed during the course of the experiments, and the percentage change in body weight from the onset to termination of therapy was used as an indication of host toxicity.
Each value represents the average of 5 animals per group.

[2] = test system: B16 melanoma; test: Survival time of mice bearing the B16 melanoma; format: in vivo, mouse (C57B1 mice); conditions: for Max. % T/C: Table IV, B16, at optimum effective daily dose; for Av. Change in wt., %: at optimum effective daily dose, B16 mice; for Max. % T/C B16 Melanoma: Table V
Description: This tumor was propagated in C57B1mice. Transplantation was carried out by removing tumors from donor mice bearing 14-day subcutaneous tumor growths. The tissue was fragmented to make a well-dispersed cellular suspension and diluted with Fischer's medium without serum so that one gram of tissue was suspended in 5 ml of solution. A portion (0.2 ml) of the resulting cell suspension was injected intraperitoneally into each recipient animal. All compounds were administered over a wide range of dosage levels by intraperitoneal injection, beginning 24 hours after tumor implantation, once daily for 6 consecutive days. The test compounds were injected as fine suspensions following homogenization in 2 to 3 drops of 20% aqueous Tween 80 and then made up to volume with isotonic saline. […] Mice were weighed during the course of the experiments, and the percent change in body weight from onset to termination of therapy was used as an indication of drug toxicity. Determination of the sensitivity of neoplasms to these agents was based on the prolongation of survival time afforded by the drug treatments.
^a Administered once daily for six consecutive days, beginnign 24
hours after tumor transplanation, with 5 animals being used per group.
^b Average change in body weight from onset to termination of therapy
^c % T/C = average survival time of treated/control animals ×
100. Each value represents the average of 5 animals per group.

[3] = 50 mg/kg once daily for six days
[4] = 100 mg/kg once daily for six days
[5] = 150 mg/kg once daily for six days
[6] = 144 h, 50 mg/kg once daily for six days, L1210
[7] = 144 h, 100 mg/kg once daily for six days, L1210

SMILES	Max. % T/C L1210 Leukemia [1]	Max. % T/C B16 Melanoma [2]	further results
Cc1ccc(S(=O)(=O)N(C)NS(=O)(=O)Cc2ccccc2)cc1 [Compound 6, N'-benzylsulfonyl-N-methyl-N-(p-toluenesulfonyl)hydrazine]			Average Survival Time of Treated Animals, days ± SE [1, 3]: 16.0 ± 3.4 days; Av. Change wt. % [1, 3]: +10.8%; Average Survival Time of Treated Animals, days ± SE [1, 4]: 12.6 ± 0.8 days; Av. Change wt. % [1, 4]: +2.4%; Average Survival Time of Treated Animals, days ± SE [1, 5]: 14.6 ± 1.9 days; Av. Change wt. % [1, 5]: -4.3%; response vs control in vivo at 50 mg/kg [1, 6]: 174%; response vs control in vivo at 100 mg/kg [1, 7]: 137%; response vs control in vivo at 150 mg/kg ([1]; 144 h, 150 mg/kg once daily for six days, L1210): 159%; activity against the L1210 leukemia (in words) [1]: comparable to that of compounds 1-3 and 5; also recorded: relatively high level of activity; increase in survival time of mice bearing the L1210 leukemia ([1]; optimal daily dosage level): 74%; Max. % T/C [2]: 172 % T/C; Av. Change in wt., % [2]: -2.4%
CN(NS(=O)(=O)c1ccc2ccccc2c1)S(=O)(=O)c1ccc2ccccc2c1 [Compound 11, Nmethyl-N,N'bis(2-naphthalenesulfonyl)hydrazine]			Average Survival Time of Treated Animals, days ± SE [1, 3]: 11.4 ± 1.1 days; Av. Change wt. % [1, 3]: +6.9%; Average Survival Time of Treated Animals, days ± SE [1, 4]: 10.2 ± 0.4 days; Av. Change wt. % [1, 4]: +3.0%; Average Survival Time of Treated Animals, days ± SE [1, 5]: 14.0 ± 2.3 days; Av. Change wt. % [1, 5]: -3.3%; response vs control in vivo at 50 mg/kg [1, 6]: 127%; response vs control in vivo at 100 mg/kg [1, 7]: 113%; response vs control in vivo at 150 mg/kg ([1]; L1210, 144 h): 156%; Max. % T/C [2]: 164 % T/C; Av. Change in wt., % [2]: +4.6%
Cc1ccc(S(=O)(=O)NN(C)S(=O)(=O)c2ccccc2)cc1 [Compound 14]	153 % T/C	178 % T/C	
COc1ccc(S(=O)(=O)NN(C)S(=O)(=O)c2ccccc2)cc1 [Compound 15]	136 % T/C	191 % T/C	
CN(NS(=O)(=O)c1ccc(Cl)cc1)S(=O)(=O)c1ccccc1 [Compound 16]	122 % T/C	148 % T/C	
CN(NS(=O)(=O)c1ccc2ccccc2c1)S(=O)(=O)c1ccccc1 [Compound 18]		181 % T/C	
CN(NS(=O)(=O)c1ccc(Br)cc1)S(=O)(=O)c1ccccc1 [Compound 19]		187 % T/C	
Cc1ccc(S(=O)(=O)N(C)NS(=O)(=O)c2ccc(Br)cc2)cc1 [Compound 20, N'-(p-bromobenzenesulfonyl)-N-methyl-N-(p-toluenesulfonyl)hydrazine]	169 % T/C	161 % T/C	
Cc1ccc(S(=O)(=O)N(C)NS(=O)(=O)c2ccc3ccccc3c2)cc1 [Compound 21, N'-(2-naphthalenesulfonyl)-N-methyl-N-(p-toluenesulfonyl)hydrazine]	134 % T/C		
Cc1ccc(S(=O)(=O)N(C)NS(=O)(=O)c2ccc([N+](=O)[O-])cc2)cc1 [Compound 22]		192 % T/C	
COc1ccc(S(=O)(=O)N(C)NS(=O)(=O)c2ccccc2)cc1 [Compound 23]	178 % T/C	151 % T/C	
COc1ccc(S(=O)(=O)N(C)NS(=O)(=O)c2ccc(Cl)cc2)cc1 [Compound 24, N'-(p-chlorobenzenesulfonyl)-N-(p-methoxybenzene-sulfonyl)-N-methylhydrazine]		170 % T/C	
COc1ccc(S(=O)(=O)N(C)NS(=O)(=O)c2ccc(Br)cc2)cc1 [Compound 25]	134 % T/C	205 % T/C	
COc1ccc(S(=O)(=O)N(C)NS(=O)(=O)c2ccc3ccccc3c2)cc1 [Compound 27]		163 % T/C	
COc1ccc(S(=O)(=O)N(C)NS(=O)(=O)Cc2ccccc2)cc1 [Compound 28]	152 % T/C	160 % T/C	
COc1ccc(S(=O)(=O)N(C)NS(C)(=O)=O)cc1 [Compound 29]	274 % T/C	204 % T/C	activity against the L1210 leukemia (in words) [1]: highest increases in survival time
CN(NS(=O)(=O)c1ccccc1)S(=O)(=O)c1ccc(Cl)cc1 [Compound 31, N'-benzenesulfonyl-N-(p-chlorobenzenesulfonyl)-N-methylhydrazine]	111 % T/C	146 % T/C	
COc1ccc(S(=O)(=O)NN(C)S(=O)(=O)c2ccc(Cl)cc2)cc1 [Compound 32, N-(p-chlorobenzenesulfonyl)-N'-(p-methoxybenzenesulfonyl)-N-methylhydrazine]	130 % T/C	153 % T/C	
CN(NS(=O)(=O)c1ccc2ccccc2c1)S(=O)(=O)c1ccc(Cl)cc1 [Compound 33, N-(p-chlorobenzenesulfonyl)-N-methyl-N'-(2-naphthalenesulfonyl)hydrazine]	109 % T/C	153 % T/C	
CN(NS(=O)(=O)C=Cc1ccccc1)S(=O)(=O)c1ccc(Cl)cc1 [Compound 34]		143 % T/C	
CN(NS(C)(=O)=O)S(=O)(=O)c1ccc(Cl)cc1 [Compound 35, N-(p-chlorobenzenesulfonyl)-N'-methanesulfonyl-N-methylhydrazine]	167 % T/C	194 % T/C	
CCS(=O)(=O)NN(C)S(=O)(=O)c1ccc(Cl)cc1 [Compound 36]		164 % T/C	

SMILES	Max. % T/C L1210 Leukemia [1]	Max. % T/C B16 Melanoma [2]	further results
CN(NS(=O)(=O)c1ccccc1)S(=O)(=O)c1ccc(Br)cc1 [Compound 37, N'-benzenesulfonyl-N-(p-bromobenzenesulfonyl)-N-methylhydrazine]		160 % T/C	
Cc1ccc(S(=O)(=O)NN(C)S(=O)(=O)c2ccc(Br)cc2)cc1 [Compound 38, N-(p-bromobenzenesulfonyl)-N-methyl-N'-(p-toluenesulfonyl)hydrazine]	127 % T/C		
COc1ccc(S(=O)(=O)NN(C)S(=O)(=O)c2ccc(Br)cc2)cc1 [Compound 39, N-(p-bromobenzenesulfonyl)-N'-(p-methoxybenzene-sulfonyl)-N-methylhydrazine]	165 % T/C	167 % T/C	
CN(NS(=O)(=O)c1ccc(Cl)cc1)S(=O)(=O)c1ccc(Br)cc1 [Compound 40, N-(p-bromobenzenesulfonyl)-N'-(p-chlorobenzenesulfonyl)-N-methylhydrazine]		145 % T/C	
CN(NS(=O)(=O)c1ccc(Br)cc1)S(=O)(=O)c1ccc(Br)cc1 [Compound 41, N,N'-bis(p-bromobenzenesulfonyl)-N-methylhydrazine]	183 % T/C	161 % T/C	
CN(NS(=O)(=O)c1ccc2ccccc2c1)S(=O)(=O)c1ccc(Br)cc1 [Compound 42, N-(p-bromobenzenesulfonyl)-N-methyl-N-(2-naphthalenesulfonyl)hydrazine]		146 % T/C	
CN(NS(=O)(=O)C=Cc1ccccc1)S(=O)(=O)c1ccc(Br)cc1 [Compound 43, N-(p-bromobenzenesulfonyl)-N-methyl-N'-(2-styrenesulfonyl)hydrazine]		178 % T/C	
CN(NS(C)(=O)=O)S(=O)(=O)c1ccc(Br)cc1 [Compound 44]		221 % T/C	
CN(NS(=O)(=O)c1ccccc1)S(=O)(=O)c1ccc2ccccc2c1 [Compound 45, N'-benzenesulfonyl-N-methyl-N-(2naphthalenesulfonyl)hydrazine]	106 % T/C	163 % T/C	
Cc1ccc(S(=O)(=O)NN(C)S(=O)(=O)c2ccc3ccccc3c2)cc1 [Compound 46, N-(N'-naphthalenesulfonyl)-N-methyl-N'-(p-toluenesulronyl)hydrazine]	120 % T/C		
CN(NS(=O)(=O)c1ccccc1)S(=O)(=O)Cc1ccccc1 [Compound 49, N'-benzenesulfonyl-N-benzylsulfonyl-N-methylhydrazine]	185 % T/C	208 % T/C	
Cc1ccc(S(=O)(=O)NN(C)S(=O)(=O)Cc2ccccc2)cc1 [Compound 50]	144 % T/C	206 % T/C	
COc1ccc(S(=O)(=O)NN(C)S(=O)(=O)Cc2ccccc2)cc1 [Compound 51]		182 % T/C	
CN(NS(=O)(=O)c1ccc(Cl)cc1)S(=O)(=O)Cc1ccccc1 [Compound 52]	128 % T/C	184 % T/C	
CN(NS(=O)(=O)c1ccc(Br)cc1)S(=O)(=O)Cc1ccccc1 [Compound 53]		163 % T/C	
CN(NS(=O)(=O)c1ccc2ccccc2c1)S(=O)(=O)Cc1ccccc1 [Compound 54]	115 % T/C		
CN(NS(=O)(=O)Cc1ccccc1)S(=O)(=O)Cc1ccccc1 [Compound 55, N,N'-bis(benzylsulfonyl)-N-methylhydrazine]		152 % T/C	
CN(NS(C)(=O)=O)S(=O)(=O)Cc1ccccc1 [Compound 56]		203 % T/C	
CN(NS(=O)(=O)C=Cc1ccccc1)S(=O)(=O)C=Cc1ccccc1 [Compound 57]		171 % T/C	
CC(=O)Nc1ccc(S(=O)(=O)N(C)NS(=O)(=O)c2ccc(Br)cc2)cc1 [Compound 58]		164 % T/C	
Cc1ccc(S(=O)(=O)NN(C)S(=O)(=O)c2ccc(I)cc2)cc1 [Compound 59]	123 % T/C	176 % T/C	
CN(NS(C)(=O)=O)S(=O)(=O)c1ccc(I)cc1 [Compound 62]		195 % T/C	

Source: patent publication US4892887A, “N,N'-bis(sulfonyl)hydrazines having antineoplastic activity” (Yale University, priority 1988, dated 1990)
